“Also recorded” adds a separate entry of the source.
Assays:
[1] = molecular target: T1, human GPR43 receptor (hGPR43) (Homo sapiens, UniProt O15552); assay: GTPγS binding assay (SPA method); assay type: biochemical; conditions: membranes expressing hGPR43; assay performed in the presence of SCFA; read-out: EC50 (nM) in GTPγ35S assay
T1 construct: expressed in transfected cells
T1 sequence (O15552 1-330): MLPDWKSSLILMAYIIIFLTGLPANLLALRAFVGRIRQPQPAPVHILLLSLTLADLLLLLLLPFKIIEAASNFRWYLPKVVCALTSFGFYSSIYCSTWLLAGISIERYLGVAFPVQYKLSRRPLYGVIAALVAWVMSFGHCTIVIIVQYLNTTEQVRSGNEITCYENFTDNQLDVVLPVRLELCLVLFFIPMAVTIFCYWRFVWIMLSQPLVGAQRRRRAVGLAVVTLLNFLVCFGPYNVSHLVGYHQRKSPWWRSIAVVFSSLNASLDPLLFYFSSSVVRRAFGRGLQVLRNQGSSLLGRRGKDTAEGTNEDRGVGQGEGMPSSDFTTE
How it was run: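 Membranes (5 μg) from hGPR43-expressing cells were incubated 30 min at room temperature with [35S]GTPγS, compounds (30 μM to 1 nM) and WGA SPA beads. Buffer was 20 mM HEPES pH 7.4, 100 mM NaCl, 10 μg/ml saponin, 30 mM MgCl2 and 10 μM GDP, with SCFA present. Bound label was read by scintillation counting.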

[2] = system: adipocytes isolated from normal rats; assay: Lipolysis assay in isolated adipocytes (normal rats); assay type: cell-based; conditions: adipocytes isolated from normal rats (FIGS. 6 and 7)
Protocol: Isolated adipocytes were diluted to 5% in KRH-buffer and were pre-treated with compound of the invention (30 μM, 10 μM and 1 μM) for 30 min at 37° C./120 rpm. After the pre-treatment, Isoprenaline (1 μM) was added to the adipocytes followed by 30 min incubation at 37° C./150 rpm. The reactions were put on ice and the buffer was assayed spectrophotometrically for the production of […] from glycerol breakdown in reactions catalyzed by glycerol kinase and glycerol-3-phosphate dehydrogenase and/or Non Esterified Fatty Acid (NEFA). Each data point was investigated in triplicates in two independent experiments.

NCI-H716 cells = assay: GLP-1 release from NCI-H716 cells; assay type: cell-based, Human; conditions: NCI-H716 cells (FIG. 9)
Protocol: Human intestinal cell line NCI-H716 has been described as cellular model to assess compounds mimicking nutrient-mediated effect such as glucagon-like peptide-1 (GLP-1) secretion.
NCl-H716 cells (ATCC, Manassas) are cultured in Dulbecco's modified eagle's medium (DMEM) containing 10% (v/v) bovine serum, 2 mM L-glutamine, 100 IU/ml penicillin and 100 μg/ml streptomycin in 75 ml flask. Cell adhesion and endocrine differentiation is initiated by growing cells in 96-well plate coated with matrigel in High Glucose DMEM containing 10% (v/v) bovine serum, 2 mM L-glutamine, 100 IU/ml penicillin and 100 μg/ml streptomycin for 2 days. On day 2, the medium is removed and cells are washed once with a pre-warmed wash buffer (Phosphate Buffered salt solution). The wash solution is removed and the SCFA or the compounds of the invention, or a combination of both, are added at the desired concentration in High Glucose DMEM containing 0.1% (v/v) bovine serum and incubated for 2 hours at 37° C. The supernatants are collected in a container. Using the cell-free supernatants, the GLP-1 amount is assessed using a GLP-1 specific ELISA assay kit according the manufacturer's recommendations (ALPCON).

normal diet fed mice = assay: In vivo assay of anti-lipolytic activity in rodent model (plasma FFA); conditions: orally administered, 50mg/kg, 15 minutes following the dosing, vs vehicle (FIG. 8)
Protocol: Male C57BL/6N wild-type are housed one per cage in a room maintained on a 12 h light/dark cycle under constant temperature (22-25° C.) with ad libitum access to food and water. The anti-lipolytic effects of the compounds of the invention are studied in awake mice. Animals are fasted overnight before experimental use. On the day of the experiment, animals are put in metabolic cages and left undisturbed to acclimate to the environment for 1-2 h. blood samples are taken at indicated time points from the intraorbital retrobulbar plexus. A 1% sodium citrate saline solution is used to flush the lines. A pre-treatment blood sample is obtained from each animal to determine baseline values for free fatty acids (FFA) and triglycerides (TG). Compounds of the invention are given via oral gavage, sc injection, iv injection or ip injection for each different series of experiments. Blood samples are collected into pre-cooled tubes pre-coated with heparin (200 μl blood, Li-heparin, Sarstedt) for determination triglycerides and glycerol and in tri-potassium EDTA added sodium fluoride (200 μl blood, K3-EDTA, 1.6 mg/mL+1% NaF, Sarstedt) for determination of plasma free fatty acids. The tubes are placed on wet ice pending processing. Blood samples will be centrifuged at 4000×g, at 4° C., 15 min the resulting plasma will be transferred into non-coated tubes and stored at −80° C. until analyses. […]

Molecule	EC50 [1] [nM]	isoprenaline-induced lipolysis [2]	GLP-1 secretion (NCI-H716 cells)	in vivo FFA baseline (normal diet fed mice)
COc1ccc(-c2ccccc2-c2csc(N(C(=O)[C@@H](CC(=O)O)CC3CCCC3)C3CC3)n2)cn1 [Compound 169, (R)-3-(cyclopentylmethyl)-4-(cyclopropyl(4-(2-(6-methoxypyridin-3-yl)phenyl)thiazol-2-yl)amino)-4-oxobutanoic acid]		inhibit	significantly increases	inhibition; also recorded: inhibit
O=C(O)C[C@@H](CC1CCCC1)C(=O)N(c1nc(-c2ccccc2-c2ccc(N3CCCC3=O)nc2)cs1)C1CC1 [Compound 183, (R)-3-(cyclopentylmethyl)-4-(cyclopropyl(4-(2-(6-(2-oxopyrrolidin-1-yl)pyridin-3-yl)phenyl)thiazol-2-yl)amino)-4-oxobutanoic acid]	57	inhibit		inhibition; also recorded: inhibit
COc1ncc(-c2ccc(Cl)cc2-c2csc(N(C)C(=O)[C@@H](CC(=O)O)Cc3ccccc3)n2)cc1Cl [Compound 222, (R)-3-benzyl-4-((4-(5-chloro-2-(5-chloro-6-methoxypyridin-3-yl)phenyl)thiazol-2-yl)(methyl)amino)-4-oxobutanoic acid]	102			
C[C@@H](O)CN(C(=O)[C@@H](CC(=O)O)Cc1ccccc1)c1nc(-c2ccccc2Cl)cs1 [Compound 246, (R)-3-benzyl-4-((4-(2-chlorophenyl)thiazol-2-yl)((R)-2-hydroxypropyl)amino)-4-oxobutanoic acid]	628			
(3R)-4-((4-(2-chlorophenyl)thiazol-2-yl)(methyl)amino)-4-oxo-3-((tetrahydrofuran-2-yl)methyl)butanoic acid [Compound 155]	94	inhibit		

Further molecules by falling EC50 [1], results first:

EC50 [1] [nM]	Molecule	isoprenaline-induced lipolysis [2]	GLP-1 secretion (NCI-H716 cells)	in vivo FFA baseline (normal diet fed mice)
87	COc1ncc(-c2ccc(Cl)cc2-c2csc(N(C(=O)[C@@H](CC(=O)O)CC3CCCC3)C3CC3)n2)cc1Cl [Compound 223, (R)-4-((4-(5-chloro-2-(5-chloro-6-methoxypyridin-3-yl)phenyl)thiazol-2-yl)(cyclopropyl)amino)-3-(cyclopentylmethyl)-4-oxobutanoic acid]			
38	COc1ccc(-c2ccccc2-c2csc(N(C)C(=O)[C@@H](CC(=O)O)CC3CCCC3)n2)cn1 [Compound 139, (R)-3-(cyclopentylmethyl)-4-((4-(2-(6-methoxypyridin-3-yl)phenyl)thiazol-2-yl)(methyl)amino)-4-oxobutanoic acid]	inhibit		
32	CN(C)c1ccc(-c2ccccc2-c2csc(N(C(=O)[C@@H](CC(=O)O)CC3CCCC3)C3CC3)n2)cn1 [Compound 218, (R)-3-(cyclopentylmethyl)-4-(cyclopropyl(4-(2-(6-(dimethylamino)pyridin-3-yl)phenyl)thiazol-2-yl)amino)-4-oxobutanoic acid]			
27	COc1ncc(-c2ccccc2-c2csc(N(C(=O)[C@@H](CC(=O)O)CC3CCCC3)C3CC3)n2)cc1F [Compound 220, (R)-3-(cyclopentylmethyl)-4-(cyclopropyl(4-(2-(5-fluoro-6-methoxypyridin-3-yl)phenyl)thiazol-2-yl)amino)-4-oxobutanoic acid]			
27	COc1ncc(-c2ccc(Cl)cc2-c2csc(N(C(=O)[C@@H](CC(=O)O)CC3CCCC3)C3CC3)n2)cc1F [Compound 224, (R)-4-((4-(5-chloro-2-(5-fluoro-6-methoxypyridin-3-yl)phenyl)thiazol-2-yl)(cyclopropyl)amino)-3-(cyclopentylmethyl)-4-oxobutanoic acid]			
